In assay [1] the target is T1, GST-tagged GDP-loaded KRAS G12V (amino acids 1-169) (Homo sapiens, UniProt P01116, G12V).
T1 construct: GST-tagged GDP-loaded KRAS G12V (amino acids 1-169); made in house; host or cells: E. coli
As to the kind of experiment: KRAS G12V probe displacement assay (TR-FRET). It counts as binding. The conditions noted are these: displacement of biotinylated probe 2 from GDP-loaded KRAS G12V. A digest of the protocol:
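GST-tagged GDP-loaded KRAS 1-169 (WT 3 nM; G12V 2 nM final) preincubated 1 h at 24 °C with serially diluted compound in HEPES pH 7.5 buffer, then biotinylated probe added (probe 1 60 nM for WT; probe 2 2.5 nM for G12V), 1 h. Anti-GST-Tb/streptavidin-XL665 TR-FRET 665/620 ratio; IC50 by four-parameter fit.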
A general note: Time-resolved FRET reads energy transfer from a long-lived donor to a nearby acceptor.

Assay [2] has as its target T2, GST-tagged GDP-loaded KRAS G12D (amin acids 1-188) (Homo sapiens, UniProt P01116, G12D).
T2 construct: GST-tagged GDP-loaded KRAS G12D (amin acids 1-188); made in house; host or cells: E. coli
As to the kind of experiment: KRAS G12D probe displacement assay (TR-FRET). In kind it is binding. The conditions noted are these: displacement of biotinylated probe 2 from GDP-loaded KRAS G12D. As to the method:
KRAS WT and KRAS G12D Probe Displacement Assay
This assay was used to identify compounds which bind to GDP-loaded KRAS protein and are able to displace a biotinylated probe occupying the KRAS binding site. GST-tagged GDP-loaded WT KRAS (amino acids 1-188) and GST-tagged GDP-loaded KRAS G12D (amin acids 1-188) were expressed in E. coli and purified in house. All protein and reaction solutions were prepared in assay buffer containing 50 mM HEPES pH7.5, 50 mM NaCl, 1 mM MgCl2, 1 mM TCEP, 0.01% BSA, and 0.008% Brij-35. Purified WT KRAS (3 nM final concentration) or KRAS G12D protein (0.5 nM final concentration) was incubated with a 3-fold serially diluted compound in the assay plate (384 well microplate, black, Corning). Plates are incubated at 24° C. for 1 hr. Following the incubation, biotinylated probe 1 (60 nM final assay concentration) for WT KRAS and biotinylated probe 2 (4 nM final assay concentration) for KRAS G12D was added to the assay plate, respectively. After 1 hr incubation at 24° C., Mab Anti-GST-Tb cryptate (Cisbio) and Streptavidin-XL665 (Cisbio) were added and further incubated at 24° C. for another 1 hr. The TR-FRET signals (ex337 nm, em665 nm/620 nm) were read on BMG PHERAstar FSX instrument. The inhibition percentage of KRAS protein binding with biotinylated probe in presence of increasing concentrations of compounds was calculated based on the ratio of fluorescence at 665 nm to that at 620 nm. The IC50 value of each compound was calculated from fitting the data to the four-parameter logistic model by Dotmatics.

For assay [3], the system named is pERK1/2(THR202/TYR204) level, AsPC-1 cell line. As to the kind of experiment: KRAS G12D pERK assay (HTRF). In kind it is cell-based. To be noted: Homo sapiens, ASPC1; AsPC-1 cells, 2 h compound treatment. As to the method: (§1) AsPC-1 cell line was used in this study. Cells were maintained in RPMI-1640 supplemented with 10% fetal bovine serum (Thermo Fisher), 50 units/mL penicillin and streptomycin (Thermo Fisher) and kept at 37° C. in a humidified atmosphere of 5% CO2 in air. Cells were reinstated from frozen stocks that were laid down within 30 passages from the original cells purchased. 30000 cells per well were seeded into a 96-well plate and incubated overnight. Cells were treated with a 10-point dilution series. The final compound concentration is from 0 to 10 μM. After 2 h compound treatment, cells were lysed, and the pERK1/2(THR202/TYR204) level in the cell lysates was detected by HTRF kit (Cisbio). In brief, a total of 16 μL of cell lysate from each well of a 96-well plate was transferred to a 384-well white assay plate. Lysate from each well was incubated with 2 μL of Eu3+− cryptate (donor) labeled anti-phospho-ERK1/2 and 2 μL of D2 (acceptor) labeled anti-phospho-ERK1/2 antibodies (Cisbio) overnight in dark at room temperature. When donor and acceptor are in close proximity, excitation of the donor with laser triggers a Fluorescence Resonance Energy Transfer (FRET) towards the acceptor, which in turn fluoresces at 655 nm wavelength. FRET signals were measured using a PHERAstar FSX reader (BMG Labtech). IC50 determination was performed by fitting the curve of percent inhibition versus the log of the inhibitor concentration using Dotmatics.

In assay [4] the test system is pERK1/2(THR202/TYR204) level, SW620 cell line. As to the kind of experiment: KRAS G12V pERK assay (HTRF). In kind it is cell-based. The conditions noted are these: Homo sapiens, SW-620; SW620 cells, 2 hrs compound treatment. As to the method: as §1, with “SW620 cell” for “AsPC-1 cell”, “in RPMI 1640” for “in RPMI-1640”, “purchased. 40000” for “purchased. 30000”, “[…].” for “10 μM.”, “2 hrs” for “2 h”

pIC50: −log10 of the molar value.

T2 sequence (P01116 1-188 isoform P01116-2 G12D): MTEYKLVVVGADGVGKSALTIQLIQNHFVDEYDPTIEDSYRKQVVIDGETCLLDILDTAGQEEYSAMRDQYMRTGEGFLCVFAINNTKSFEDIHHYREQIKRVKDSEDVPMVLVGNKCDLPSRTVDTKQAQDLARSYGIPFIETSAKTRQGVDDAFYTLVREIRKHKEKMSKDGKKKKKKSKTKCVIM
T1 sequence (P01116 1-169 isoform P01116-2 G12V): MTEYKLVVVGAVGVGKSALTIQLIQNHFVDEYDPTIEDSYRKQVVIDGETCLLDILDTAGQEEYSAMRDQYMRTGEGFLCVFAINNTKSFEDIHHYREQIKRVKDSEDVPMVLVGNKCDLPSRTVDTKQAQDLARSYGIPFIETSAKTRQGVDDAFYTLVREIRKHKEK

For `Nc1nc2c(-c3c(C(F)(F)F)cc4c(N5CCC6(CC5)CNC(=O)O6)nc(OC[C@@]56CCCN5C[C@H](F)C6)nc4c3F)ccc(F)c2s1` [Example 86, 8-(7-(2-amino-7-fluorobenzo[d]thiazol-4-yl)-8-fluoro-2-(((2R,7aS)-2-fluorotetrahydro-1H-pyrrolizin-7a(5H)-yl)methoxy)-6-(trifluoromethyl)quinazolin-4-yl)-1-oxa-3,8-diazaspiro[4.5]decan-2-one], the pIC50 – broadly, −log10 of the IC50, conventionally taken in molar units – in assay [1] was 9.10; in assay [2] it was 7.64; in assay [3], 5.26; in assay [4], 6.15.

Turning to `Nc1nc2c(-c3c(C(F)(F)F)cc4c(NC5CC5)nc(OC[C@@]56CCCN5C[C@H](F)C6)nc4c3F)ccc(F)c2s1` [Example 1, 4-(4-(cyclopropylamino)-8-fluoro-2-(((2R,7aS)-2-fluorotetrahydro-1H-pyrrolizin-7a(5H)-yl)methoxy)-6-(trifluoromethyl)quinazolin-7-yl)-7-fluorobenzo[d]thiazol-2-amine], the pIC50 in assay [1] is 8.38; in assay [2], 7.66; in assay [3], 5.61; in assay [4] it was 6.89.

As for `N#CC1CCN(c2nc(OC[C@@]34CCCN3C[C@H](F)C4)nc3c(F)c(-c4ccc(F)c5sc(N)nc45)c(C(F)(F)F)cc23)CC1` [Example 68, 1-(7-(2-amino-7-fluorobenzo[d]thiazol-4-yl)-8-fluoro-2-(((2R,7aS)-2-fluorotetrahydro-1H-pyrrolizin-7a(5H)-yl)methoxy)-6-(trifluoromethyl)quinazolin-4-yl)piperidine-4-carbonitrile], the pIC50 is 9.11 in assay [1], 8.18 in assay [2], 6.16 in assay [3] and 7.12 in assay [4].

In the case of `CN1CC2(CCN(c3nc(OC[C@@]45CCCN4C[C@H](F)C5)nc4c(F)c(-c5ccc(F)c6sc(N)nc56)c(C(F)(F)F)cc34)CC2)OC1=O` [Example 87, 8-(7-(2-amino-7-fluorobenzo[d]thiazol-4-yl)-8-fluoro-2-(((2R,7aS)-2-fluorotetrahydro-1H-pyrrolizin-7a(5H)-yl)methoxy)-6-(trifluoromethyl)quinazolin-4-yl)-3-methyl-1-oxa-3,8-diazaspiro[4.5]decan-2-one], the values for the pIC50 in assay [1] and in assay [4] were 9.11 and 6.97, respectively.

`N#CC1CCN(c2nc(OC[C@@]34CCCN3C[C@H](F)C4)nc3c(F)c(-c4ccc(F)c5sc(N)nc45)c(C(F)(F)F)cc23)C1` (stereo partly drawn) [Example 60, 1-(7-(2-amino-7-fluorobenzo[d]thiazol-4-yl)-8-fluoro-2-(((2R,7aS)-2-fluorotetrahydro-1H-pyrrolizin-7a(5H)-yl)methoxy)-6-(trifluoromethyl)quinazolin-4-yl)pyrrolidine-3-carbonitrile]: the negative logarithm of the IC50 (pIC50) in assay [1] was 8.68; in assay [4], 6.38.

Regarding `Nc1nc2c(-c3c(C(F)(F)F)cc4c(N5CCC5)nc(OC[C@@]56CCCN5C[C@H](F)C6)nc4c3F)ccc(F)c2s1` [Example 33, 4-(4-(azetidin-1-yl)-8-fluoro-2-(((2R,7aS)-2-fluorotetrahydro-1H-pyrrolizin-7a(5H)-yl)methoxy)-6-(trifluoromethyl)quinazolin-7-yl)-7-fluorobenzo[d]thiazol-2-amine], the results for the pIC50 in assay [1] and in assay [4] were 8.59 and 6.48, respectively.

For `CC1C(C#N)CN1c1nc(OC[C@@]23CCCN2C[C@H](F)C3)nc2c(F)c(-c3ccc(F)c4sc(N)nc34)c(C(F)(F)F)cc12` (stereo partly drawn) [Example 43, 1-(7-(2-amino-7-fluorobenzo[d]thiazol-4-yl)-8-fluoro-2-(((2R,7aS)-2-fluorotetrahydro-1H-pyrrolizin-7a(5H)-yl)methoxy)-6-(trifluoromethyl)quinazolin-4-yl)-2-methylazetidine-3-carbonitrile], the results for the pIC50 in assay [1] and in assay [4] were 8.15 and 6.45, respectively.

For `N#CC1CCCN(c2nc(OC[C@@]34CCCN3C[C@H](F)C4)nc3c(F)c(-c4ccc(F)c5sc(N)nc45)c(C(F)(F)F)cc23)CC1` (stereo partly drawn) [Example 82, 1-(7-(2-amino-7-fluorobenzo[d]thiazol-4-yl)-8-fluoro-2-(((2R,7aS)-2-fluorotetrahydro-1H-pyrrolizin-7a(5H)-yl)methoxy)-6-(trifluoromethyl)quinazolin-4-yl)azepane-4-carbonitrile], the pIC50 in assay [1] is 9.13; in assay [4] it was 6.70.

In the case of `Nc1nc2c(-c3c(C(F)(F)F)cc4c(N[C@H]5[C@@H]6COC[C@@H]65)nc(OC[C@@]56CCCN5C[C@H](F)C6)nc4c3F)ccc(F)c2s1` [Example 7, 4-(4-(((1R,5S,6r)-3-oxabicyclo [3.1.0]hexan-6-yl)amino)-8-fluoro-2-(((2R,7aS)-2-fluorotetrahydro-1H-pyrrolizin-7a(5H)-yl)methoxy)-6-(trifluoromethyl)quinazolin-7-yl)-7-fluorobenzo[d]thiazol-2-amine], the pIC50 is 8.38 in assay [1] and 6.66 in assay [4].

`N#CC1CN(c2nc(OC[C@@]34CCCN3C[C@H](F)C4)nc3c(F)c(-c4ccc(F)c5sc(N)nc45)c(C(F)(F)F)cc23)C1` [Example 39, 1-(7-(2-amino-7-fluorobenzo[d]thiazol-4-yl)-8-fluoro-2-(((2R,7aS)-2-fluorotetrahydro-1H-pyrrolizin-7a(5H)-yl)methoxy)-6-(trifluoromethyl)quinazolin-4-yl)azetidine-3-carbonitrile]: the pIC50 in assay [1] is 8.26; in assay [4] it was 6.39.

In the case of `C[C@@H]1C[C@@H](C#N)CCN1c1nc(OC[C@@]23CCCN2C[C@H](F)C3)nc2c(F)c(-c3ccc(F)c4sc(N)c(C#N)c34)c(Cl)cc12` [Example 101, (2R,4S)-1-(7-(2-amino-3-cyano-7-fluorobenzo[b]thiophen-4-yl)-6-chloro-8-fluoro-2-(((2R,7aS)-2-fluorotetrahydro-1H-pyrrolizin-7a(5H)-yl)methoxy)quinazolin-4-yl)-2-methylpiperidine-4-carbonitrile], the pIC50 was 9.55 in assay [1] and 7.96 in assay [4].

On to `Nc1nc2c(-c3c(C(F)(F)F)cc4c(N5CC(F)C5)nc(OC[C@@]56CCCN5C[C@H](F)C6)nc4c3F)ccc(F)c2s1` [Example 37, 7-fluoro-4-(8-fluoro-4-(3-fluoroazetidin-1-yl)-2-(((2R,7aS)-2-fluorotetrahydro-1H-pyrrolizin-7a(5H)-yl)methoxy)-6-(trifluoromethyl)quinazolin-7-yl)benzo[d]thiazol-2-amine], for which the values for the pIC50 in assay [1] and in assay [4] were 8.22 and 6.35, respectively.

Values taken from US20250101028A1, “HETEROCYCLIC COMPOUNDS, COMPOSITIONS THEREOF, AND METHODS OF TREATMENT THEREWITH” (BeiGene, Ltd., priority 2022, published 2025).
